From ChEMBL document CHEMBL3751774, “Synthesis and anti-tubercular activity of conformationally-constrained and bisquinoline analogs of TMC207” (Medchemcomm, 2015)
In brackets after ≈: the same amount, converted by molar mass.

The compounds below were run on Mycobacterium tuberculosis (assay: Antitubercular activity against multi drug resistant Mycobacterium tuberculosis isolate 2 assessed as growth inhibition after 4 weeks). Details: isolate 2, 672 h.
Format: functional

`COc1nc2ccccc2cc1C(c1cc2ccccc2nc1OC)C(O)(CCN(C)C)c1ccccc1` (stereo not drawn) was tested. Which MIC did it give?
Its MIC is 3.12 µM (≈ 1.58 µg/mL).

How did the MIC turn out when `C=CCCOc1nc2ccccc2cc1C(c1cc2ccccc2nc1OCCC=C)C(O)(CCN(C)C)c1ccc(Br)cc1` (stereo not drawn) was run?
The MIC was 3.12 µM (≈ 2.08 µg/mL).

For `COc1nc2ccccc2cc1C(c1cc2ccccc2nc1OC)C(O)(CCN(C)C)c1ccc2ccccc2c1` (stereo not drawn), which MIC is on record?
The MIC was 3.12 µM (≈ 1.74 µg/mL).

For `COc1nc2ccccc2cc1C(c1cc2ccccc2nc1OC)C(O)(CCN(C)C)c1cccc(Br)c1` (stereo not drawn), which MIC is on record?
Its MIC is 3.12 µM (≈ 1.83 µg/mL).

Each compound was assayed on Mycobacterium tuberculosis (assay: Antitubercular activity against multi drug resistant Mycobacterium tuberculosis isolate 1 assessed as growth inhibition after 4 weeks). Details: isolate 1, 672 h.
Format: functional

With `COc1nc2ccccc2cc1C(c1cc2ccccc2nc1OC)C(O)(CCN(C)C)c1ccccc1` (stereo not drawn) as the compound, how does the MIC read?
The MIC was 3.12 µM (≈ 1.58 µg/mL).

`C=CCCOc1nc2ccccc2cc1C(c1cc2ccccc2nc1OCCC=C)C(O)(CCN(C)C)c1ccc(Br)cc1` (stereo not drawn) was tested. Which MIC did it give?
Its MIC is 3.12 µM (≈ 2.08 µg/mL).

How did the MIC turn out when `COc1nc2ccccc2cc1C(c1cc2ccccc2nc1OC)C(O)(CCN(C)C)c1ccc2ccccc2c1` (stereo not drawn) was run?
Its MIC is 3.12 µM (≈ 1.74 µg/mL).

For `COc1nc2ccccc2cc1C(c1cc2ccccc2nc1OC)C(O)(CCN(C)C)c1cccc(Br)c1` (stereo not drawn), which MIC is on record?
The MIC was 3.12 µM (≈ 1.83 µg/mL).
